# In article PMC11796312, “Multifunctional, Fluorene‐Based Modulator of Cholinergic and GABAergic Neurotransmission as a Novel Drug Candidate for Palliative Treatment of Alzheimer's Disease” (Angewandte Chemie (International Ed. in English), 2024):
# Where “and” joins values, the source holds several entries; their conditions need not be identical. Equal values may be shown once. Entries after “also recorded” stand apart in the source; their conditions may differ. Read-outs that look alike come from different tables or passages of the source.
# How the values were obtained:
# SIM-A9 cells [1] = test: Intracellular RONS, DCFH-DA probe, SIM-A9; type: cell-based, mouse
# eeAChE = biological target: T1, eeAChE (Electrophorus electricus, UniProt O42275); test: Cholinesterase inhibition, Ellman's protocol, eeAChE; type: biochemical; settings: read-out: eeAChE % inh.
# T1 construct: purchased Sigma-Aldrich
# T1 sequence (O42275 24-633): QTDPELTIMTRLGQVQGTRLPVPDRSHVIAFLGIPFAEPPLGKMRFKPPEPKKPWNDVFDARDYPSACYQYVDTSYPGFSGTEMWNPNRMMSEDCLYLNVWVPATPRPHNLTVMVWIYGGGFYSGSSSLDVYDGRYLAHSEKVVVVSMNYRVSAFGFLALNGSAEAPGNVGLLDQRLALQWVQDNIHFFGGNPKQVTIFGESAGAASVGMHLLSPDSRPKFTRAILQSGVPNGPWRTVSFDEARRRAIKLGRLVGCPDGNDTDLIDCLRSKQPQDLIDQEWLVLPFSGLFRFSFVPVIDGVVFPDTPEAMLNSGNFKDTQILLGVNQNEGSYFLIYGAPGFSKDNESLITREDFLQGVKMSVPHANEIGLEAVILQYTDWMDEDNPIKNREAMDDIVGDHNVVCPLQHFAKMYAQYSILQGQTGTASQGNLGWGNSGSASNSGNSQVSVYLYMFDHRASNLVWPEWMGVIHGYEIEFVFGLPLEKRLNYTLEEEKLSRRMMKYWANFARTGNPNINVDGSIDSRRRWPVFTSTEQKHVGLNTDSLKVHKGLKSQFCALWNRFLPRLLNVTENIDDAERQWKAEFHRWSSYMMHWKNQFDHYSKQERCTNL
# Procedure: In vitro pharmacological assays.
# The in vitro inhibitory activity toward cholinesterases (eeAChE, eqBuChE,
# The target compounds were tested for their inhibitory potency against cholinesterases using
# Ellman’s protocol[32] modified for 96-well microplates.
# The stock solutions of the
# target compounds were prepared in DMSO and diluted with water, giving the desired final
# concentrations. The enzymes were prepared as 5 U/mL aqueous stock solutions and diluted
# (AChE or BuChE) were added to the reaction mixture in the wells, containing 25 μL of the
# target compound (in case of blank samples – water or water/DMSO mixture), 200 μL of 0.1
# M phosphate buffer (pH = 8.0) and 20 μL of 5,5'-dithiobis-(2-nitrobenzoic acid) DTNB
# All those reagents were preincubated for 5 min at 25 °C for the reactions with the
# animal enzymes (eeAChE or eqBuChe) and 36 °C for the human enzyme ( hBuChE) tests. The
# enzymatic reaction was initiated by the addition of 20 μL of substrate acetylthiocholine iodide
# using the EnSpire multimode microplate reader (PerkinElmer, Waltham, MA, USA). Target
# compounds were tested at the screening concentrations of 10 μM or 1 µM for inhibitory
# potencies towards animal cholinesterases or human enzyme, respectively. Percent of enzyme
# inhibition was calculated based on the formula 100 -(S/B)x100, where S and B were the
# respective enzyme activities with and without the test compound, respectively. Compounds
# with the enzyme inhibitory activities at 10 μM better than 50% ( eeAChE or eqBuChe) and at
# were based on the absorbance measured at seven different inhibitor concentrations, then
# percentages of enzymes’ inhibition were plotted against the applied inhibitor concentrations
# using nonlinear regression (GraphPad Prism 9; GraphPad Software, San Diego, CA, USA).
# All the experiments were performed in
# a %inh. at an inhibitor concentration of 10 µM
# BuChE = settings: 1 or 5 µM compound (printed '1 or 5 M'), vs DMSO
# [2] = Pharmacokinetic study after i.p. administration; type: in vivo; settings: mice, 10 mg/kg i.p.
# Procedure: Pharmacokinetic study after i.p. and i.g administration
# mg/kg), blood samples were collected from mice under deep terminal anesthesia directly by cardiac puncture into heparinized 1.5 mL tubes at selected time intervals.
# The samples were centrifuged at 3,000 × g for 10 min (10 °C), and the plasma samples were stored at -80 °C until the HPLC analysis.
# The blood in brain vessels would interfere with the assay of actual brain tissue concentrations.
# Therefore, the animals were perfused transcardially with saline solution (0.9% NaCl) for 5 min (10 mL/min). After perfusion, the skull was opened, and the brain was carefully removed and immediately stored at -80 °C until the HPLC analysis.
# UHPLC-MS method for pharmacokinetics study
# Ultra high-performance liquid chromatography system consisting of Ultimate 3000 RS pump Dionex (Thermo Scientific, San Jose, CA, USA) coupled with high-resolution mass spectrometer with orbitrap analyzer (Q Exactive Focus, Thermo Scientific, San Jose, CA, USA) was used in quantitative analyses of 6 in plasma and brain homogenate. According to the EMA[43] and FDA[42] guidelines on Bioanalytical method validation, the method was fully validated for plasma and partially for brain homogenate.
# Before analysis, 50 μL of plasma or brain homogenate was precipitated with an internal
# standard of 200 μL acetonitrile (ACN). The mixture was vortexed for 1 min at 1,500 rpm and
# centrifuged at 12,074 g for 5 min at 20 °C. The supernatant was then transferred to an
# injection vial and analyzed.
# mm ID (Phenomenex, Torrance, CA, USA), protected with a guard column SecurityGuard
# was performed in gradient elution mode with a flow rate of 0.6 mL/min and the following
# composition of mobile phase: A) 0.1% FA in water (v/v) and B) 0.1% FA in ACN/MeOH in
# The column was kept at 45 °C during
# analysis. Samples were held at 10 °C in a light-tight autosampler unit.
# Heated-Electrospray Ionization II interface (HESI-II) in positive ion mode was used with the
# following settings: spray voltage; +3.5 kV, S-lens RF level; +70 V, capillary temperature 350
# °C, auxiliary gas heater temperature; 350 °C, sheet, and auxiliary gas flow; 45 and 15
# arbitrary units, respectively. Full MS mode was used at resolution (m/𝛥m) ̴70,000 for
# Xcalibur software (v 4.0) was used for data evaluation.
# mice = test: Locomotor activity test; type: in vivo; settings: 10 and 30 mg/kg i.p.
# Procedure: Effect on depressive-like behavior - forced swim test
# The experiment was carried out according to Porsolt et al.[48] with small modifications.
# Briefly, mice were individually placed in a glass cylinder (25 cm high, 10 cm in diameter) containing 11 cm of water maintained at 23–25 °C and were left therein for 6 min. A mouse was regarded as immobile when it remained floating on the water, making only small movements to keep its head above it. The total duration of immobility was measured during the final 4 min of a 6-min test session.
# Effect on anxiety - four-plate test
# The four-plate apparatus (FPT; Bioseb, France) consists of a cage (25 × 18 × 16 cm) that is floored with four rectangular metal plates (11 × 8 cm). The plates are separated from one another by a 4 mm gap, and they are connected to an electroshock generator. […] The number of punished crossings was counted […]
# of the closed arms. […] The following parameters were measured in this test: time spent in open arms of the EPM device and the number of entries to open arms. […]
# crossings) were counted during the next 60 min of the test. […]
# For the analysis of data obtained in the in vivo tests GraphPad Prism software (v. 9.0, CA, USA) was used. Numerical results from the tests were expressed as mean ± standard error of the mean (SEM). […]
# In this fear-motivated task the effect of 6 on scopolamine-induced cognitive dysfunction was assessed. […]
# SIM-A9 cells [3] = test: Intracellular O2•-, DHE probe, SIM-A9; type: cell-based, mouse
# ICR-CD1 mice = test: Dose safety verification after oral (i.g.) administration; type: in vivo; settings: 10 mg/kg i.g.
# Procedure: phosphatase (ALP), amylase, and lactate dehydrogenase (LDH) were measured in the accredited biochemical laboratory of the Department of Clinical Biochemistry and Diagnostics, University Hospital, Hradec Kralove, Czech Republic. Statistical data analysis was performed through IBM SPSS Statistics version 26 (IBM, Armonk, NY, USA) using the Kolmogorov-Smirnov and Shapiro-Wilk tests to test data normality. Due to normally distributed data, the Student´s t-test was used to assess the differences compared with the control group (p ≤ 0.05).
# Samples of the liver and kidney were used for standard histopathological examination. Organs were fixed with 10% neutral buffered formalin (Bamed s.r.o., Ceske Budejovice, Czech Republic), histologically processed, and stained with hematoxylin and eosin (both Merck) according to Pejchal et al.[41] The histopathological changes were evaluated using a BX-51 microscope (Olympus, Tokyo, Japan).
# Dose safety verification after oral administration
# Mice were randomly assigned to the experimental groups of two males and two females per one selected dose (10 mg/kg) of 6 to verify its safety. 6 was administered by a probe (i.g., 0.1 mL/10 g of animal weight; 1% Tween 80). Treated animals were intensively observed for signs of toxicity; then, the animals were subjected to macroscopic examination. The blood was collected for biochemical analysis of glucose, urea, and creatinine concentration and the activity of alanine transaminase (ALT), aspartate transaminase (AST), gamma-glutamyl transferase (GGT), alkaline phosphatase (ALP), amylase, and creatine kinase (CK). Selected organs (terminal esophagus, stomach, duodenum, pancreas, kidney, and liver) were collected for histopathologic examination. […]
# SH-SY5Y cells = test: Intracellular RONS, DCFH-DA probe, SH-SY5Y; type: cell-based, human; settings: IC50, ½ IC50, ¼ IC50, 1, 4, 24 h
smiles,measurement,setting,value
O[C@H](CNCC1CC1)[C@H](Cc1ccccc1)NC1c2ccccc2-c2ccccc21 [Compound 6],increase in intracellular RONS,"SIM-A9 cells [1]; IC50, ½ IC50, ¼ IC50, 1, 4, 24 h",no significant increase
same,"intracellular RONS, times lower","SIM-A9 cells [1]; conc. = IC50, 24 h",1.63 fold
same,inhibition at 10 µM,eeAChE,< 10%
same,Melting temperature (Tm) of BuChE,BuChE,increased Tm of BuChE
same,Tmax,"[2]; ICR-CD1, mouse, brain, ip, 10 mg/kg, read-out: brain Tmax (converted)",0.917 h
same,Kp,"[2]; ICR-CD1, mouse, brain/plasma, ip, 10 mg/kg, read-out: Kp (AUCbrain/AUCplasma), brain-to-plasma ratio",11.1
same,MRT,"[2]; ICR-CD1, mouse, ip, plasma",3.62 h
same,k el,"[2]; ICR-CD1, mouse, ip, plasma, read-out: λz (converted)",7.5e-05 s⁻¹
same,Cmax,"[2]; ICR-CD1, mouse, plasma, ip, 10 mg/kg",0.43 ± 0.0579 µg/mL
same,half-life,"[2]; ICR-CD1, mouse, plasma, ip, 10 mg/kg, plasma, read-out: Half-life",2.69 ± 0.237 h
same,Vd/F,"[2]; ICR-CD1, mouse, plasma, ip, 10 mg/kg, plasma, read-out: Vss/F",38.2 ± 4.47 L/kg
same,Vd/F,"[2]; ICR-CD1, mouse, plasma, ip, 10 mg/kg, plasma, read-out: Vz/F",40.9 ± 4.95 L/kg
same,Tmax,"[2]; ICR-CD1, mouse, plasma, ip, 10 mg/kg, read-out: plasma Tmax (converted)",0.389 h
same,brain AUCtotal,[2],"650,923.00 ± 152,288.00 min.ng/g"
same,plasma AUCtotal,[2],"58,804.62 ± 3,318.21 min.ng/mL"
same,CL,[2]; plasma,10.2 ± 0.6 L/h/kg
same,Vz/F,"[2]; plasma, 10 mg/kg",~ 41 L/kg
same,half-life,"[2]; plasma, 10 mg/kg",~ 161 min
same,"Kp (AUCbrain/AUCplasma), brain-to-plasma ratio",[2]; 10 mg/kg,11
same,brain Cmax,[2]; 10 mg/kg,833.00 ± 62.32 ng/g and 833 ng/g
same,plasma Cmax,[2]; 10 mg/kg,0.43 µg/mL
same,locomotor activity,mice,None of these doses significantly affected the locomotor activity
same,increase in intracellular O2•-,SIM-A9 cells [3]; all concentrations and times,no significant increase
same,decrease of O2•- level,"SIM-A9 cells [3]; conc. = IC50, 24 h",26%
same,Necropsy,ICR-CD1 mice,no pathology of internal organs
same,signs of toxicity,ICR-CD1 mice,no signs of poisoning occurred; also recorded: no signs of toxicity occurred
same,"ALP, plasma",ICR-CD1 mice; 48 h,61.2 ± 6.2 U/L
same,"ALT, plasma",ICR-CD1 mice; 48 h,30.0 ± 1.6 U/L
same,"AST, plasma",ICR-CD1 mice; 48 h,51.3 ± 7.0 U/L
same,"Amylase, plasma",ICR-CD1 mice; 48 h,2630 ± 110 U/L
same,"CK, plasma",ICR-CD1 mice; 48 h,123 ± 25 U/L
same,"Glucose, plasma",ICR-CD1 mice; 48 h,205 ± 16 mg/dL
same,"Urea, plasma",ICR-CD1 mice; 48 h,38.6 ± 2.5 mg/dL
same,blood biochemistry vs control,ICR-CD1 mice; 48 h,no significant changes; also recorded: lack of significant changes in blood biochemistry
same,histopathological examinations,"ICR-CD1 mice; liver, kidney, esophagus, stomach, duodenum, pancreas",no tissue damage
same,increase in intracellular RONS,SH-SY5Y cells,no significant increase
